{"source": "paper PMC5097697", "about": "(Analytical biochemistry, 2016)", "system": "Sinapis alba myrosinase", "assay": "HPLC progress curves", "assay_type": "biochemical", "conditions": "pH 7.4, 37 °C; pooled wavelength data (220, 227, 235, 241 nm); myrosinase 8.83 U/ml", "data": [{"compound": "O=S(=O)(O)O/N=C(/CC(c1ccccc1)c1ccccc1)S[C@@H]1O[C@H](CO)[C@@H](O)[C@H](O)[C@H]1O", "note": "[compound 5, 2,2-Diphenylethyl glucosinolate]", "values": [{"measurement": "Km", "result": "798 ± 71", "unit": "µM"}]}]}
